This is an account of results in patent US6007823A, “Simmondsin concentrate from jojoba” (The United States of America as represented by the …, priority 1998, dated 1999).

For data set [1] the following is noted: statement without test; cited from earlier work.
Data set [2] is described as follows: Solubility of didemethyl simmondsin in absolute ethanol. The class given is physicochemical. As to the method: DWE, 1 gram, was stirred 30 min with 20 ml of either acetone, acetonitrile,chloroform, methanol, water, ethanol, isopropanol, 95/5 isopropanol/water or 5/95 methanol/chloroform. Supernatant was filtered, dried, weighed, and analyzed for simmondsin and analogues. […] Both the amount of simmondsins extracted and their enrichment in the extract are important in choosing a selective solvent. Therefore, selectivity was calculated as enrichment times concentration for each component, simmondsin, simmondsin ferulate, demethylsimmondsin and didemethyl simmondsin as well as the total for all four components and plotted against solvent composition and solvent to solute ratio. For simmondsin, selectivity or SIMM-- X=[(concentration of simmondsin in extract)/(concentration of simmondsin in DWE)][weight of simmondsin in extract/weight of simmondsin in DWE].

For another data set, the system named is mice. As to conditions: Cokeleare et al. 1995; cited from earlier work.
Another data set relates to chickens. To be noted: Cokeleare et al. 1995; cited from earlier work.
The next data set has as its system rats. As to conditions: Cokeleare et al. 1995; cited from earlier work.

With `N#CC=C1C(OC2OC(CO)C(O)C(O)C2O)CC(O)C(O)C1O` (centres unmarked) [didemethyl simmondsin], in data set [1], the Bioactivity entry is on record as “non-bioactive”. Besides, the “Solubility in absolute ethanol” value in data set [2] was “very limited”.
`CO[C@H]1[C@@H](OC)C[C@@H](O[C@@H]2O[C@H](CO)[C@@H](O)[C@H](O)[C@H]2O)/C(=C\C#N)[C@@H]1O` [simmondsin]: the Food intake entry in the data set with mice, in the data set with chickens and with rats was “reduces food intake” each time.
